Measurements reported in ChEMBL document CHEMBL1671630, “Phenotypic characterization of two Ancylostoma caninum isolates with different susceptibilities to the anthelmintic pyrantel” (Antimicrob Agents Chemother, 2008).
Blank lines part the entries; values can stand above or below the molecule they belong to.

Tests used:
Type in all cases: functional
Ancylostoma caninum [1] = test: Antiparasitic activity against Ancylostoma caninum isolate NT assessed as concentration of drug required to cause a force of contraction half that of the KCl-induced maximal contraction by force transduction assay
Ancylostoma caninum [2] = test: Antiparasitic activity against Ancylostoma caninum isolate NT assessed as compound concentration required to inhibit parasitic contraction by larval motility assay
Ancylostoma caninum [3] = test: Antiparasitic activity against Ancylostoma caninum isolate NT assessed as compound concentration required to inhibit parasitic contraction by larval arrested morphology assay
Ancylostoma caninum [4] = test: Antiparasitic activity against Ancylostoma caninum isolate PR assessed as concentration of drug required to cause a force of contraction half that of the KCl-induced maximal contraction by force transduction assay
Ancylostoma caninum [5] = test: Ratio of IC50 for Ancylostoma caninum isolate NT to IC50 for Ancylostoma caninum isolate PR by larval motility assay
Ancylostoma caninum [6] = test: Antiparasitic activity against Ancylostoma caninum isolate PR assessed as compound concentration required to inhibit parasitic contraction by larval arrested morphology assay
Ancylostoma caninum [7] = test: Ratio of IC50 for Ancylostoma caninum isolate NT to IC50 for Ancylostoma caninum isolate PR by larval arrested morphology assay
Ancylostoma caninum [8] = test: Ratio of EC50 for Ancylostoma caninum isolate PR to […] by force transduction assay
Ancylostoma caninum [9] = test: Antiparasitic activity against Ancylostoma caninum isolate PR assessed as compound concentration required to inhibit parasitic contraction by larval motility assay

Compound: CN1CCC[C@H]1c1cccnc1 [NICOTINE]
- EC50 (Ancylostoma caninum [1]): 942 µM
- IC50 (Ancylostoma caninum [2]): 3.7 µM
- IC50 (Ancylostoma caninum [3]): 5.8 µM
- EC50 (Ancylostoma caninum [4]): 1960 µM
- Ratio IC50 (Ancylostoma caninum [5]): 0.95
- IC50 (Ancylostoma caninum [6]): 6.2 µM
- Ratio IC50 (Ancylostoma caninum [7]): 1.07
- Ratio EC50 (Ancylostoma caninum [8]): 2.1
- IC50 (Ancylostoma caninum [9]): 3.6 µM

Compound: CN1CCCN=C1/C=C/c1cccs1.O=C(O)c1cc2ccccc2c(Cc2c(O)c(C(=O)O)cc3ccccc23)c1O [PYRANTEL PAMOATE]
- Ratio IC50 (Ancylostoma caninum [7]): 18.3
- Ratio EC50 (Ancylostoma caninum [8]): 3.1

Second part, led by results:

- EC50 (Ancylostoma caninum [1]): 2880 µM
- EC50 (Ancylostoma caninum [4]): 2790 µM
Compound: C[N+](C)(CCOc1ccccc1)Cc1ccccc1.O=C([O-])c1cc2ccccc2cc1O [BEPHENIUM HYDROXYNAPHTHOATE]
- IC50 (Ancylostoma caninum [2]): 19 µM
- IC50 (Ancylostoma caninum [3]): 45 µM
- Ratio IC50 (Ancylostoma caninum [5]): 0.45
- IC50 (Ancylostoma caninum [6]): 17 µM
- Ratio IC50 (Ancylostoma caninum [7]): 0.46
- Ratio EC50 (Ancylostoma caninum [8]): 0.97
- IC50 (Ancylostoma caninum [9]): 8.6 µM

- EC50 (Ancylostoma caninum [1]): 120 µM
- EC50 (Ancylostoma caninum [4]): 244 µM
Compound: Cl.c1ccc([C@H]2CN3CCSC3=N2)cc1 [LEVAMISOLE HYDROCHLORIDE]
- IC50 (Ancylostoma caninum [2]): 0.0015 µM
- IC50 (Ancylostoma caninum [3]): 0.0022 µM
- Ratio IC50 (Ancylostoma caninum [5]): 2.7
- IC50 (Ancylostoma caninum [6]): 0.017 µM
- Ratio IC50 (Ancylostoma caninum [7]): 7.2
- Ratio EC50 (Ancylostoma caninum [8]): 2
- IC50 (Ancylostoma caninum [9]): 0.004 µM

- EC50 (Ancylostoma caninum [1]): 217 µM
- EC50 (Ancylostoma caninum [4]): 681 µM
Compound: CN1CCCN=C1/C=C/c1cccs1 [PYRANTEL PAMOATE]
- IC50 (Ancylostoma caninum [3]): 0.0037 µM
- IC50 (Ancylostoma caninum [6]): 0.066 µM
